In patent publication US11311538B2, “Compositions and methods for targeting cancers” (YALE UNIVERSITY, priority 2018, dated 2022):

Experiments:
U2OS DR-GFP cells = experiment: U2OS DR-GFP HR assay; type: cell-based; settings: for suppression of HR, DR-GFP assay: metabolite added to cell culture medium, 24 h (FIG. 3A)
HEK293FT cells = experiment: Immunofluorescence foci assay in HEK293FT cells; type: cell-based, human; settings: metabolite added to culture media (FIGS. 3E-3G)
Method: (§1) Western Blot analyses. Western blot analysis of protein levels was conducted by loading 30 μg of whole cell lysate onto a 4-20% polyacrylamide gel. Total protein was transferred to a nitrocellulose membrane. After blocking with 5% milk, membranes were incubated with primary antibodies. Antibodies used were: Rabbit monoclonal anti-Fumarase (D9C5,Cell Signaling Technologies) 1:1000 in 5% BSA, mouse monoclonal anti-SDHB (21A11AE7, Abcam) 1:1000 in % 5 milk, mouse monoclonal anti-Vinculin (SPM227, Abcam) 1:1000 in 5% milk, rabbit polyclonal anti-Histone 3 Lysine 36 trimethyl (9050, Abcam) 1:500 in 5% BSA, anti-Histone 3 Lysine 9 trimethyl (D4W1U, Cell Signaling Technologies) 1:1000 in 5% BSA, mouse monoclonal anti-Beta Actin (60008, Protein Tech) 1:5000 5% milk, rabbit Polyclonal anti-Histone H3 (ab1791, Abcam 1:5000 5% BSA), rabbit Polyclonal anti-PAR (4336-BPC-100, Trevigen) 1:5000 5% BSA, mouse monoclonal anti-GAPDH (60004 Protein Tech) 1:5000 5% milk, mouse monoclonal anti-BRCA2 (ab1, Millipore, 1:1000 5% Milk), mouse monoclonal anti-BRCA1 (D-9, Santa Cruz, 1:200 5% milk), mouse monoclonal anti-RAD51(14B4 Novus bio, 1:1000 5% milk). Patient sample blots were reprobed. […] Doxycycline induced knockdown was monitored by western blot as well as by RFP fluorescence from the internal and dox-inducible reporter on the TRIPZ construct. […]

YUNK1 cells = experiment: Immunofluorescence foci assay in YUNK1 cells; type: cell-based, human
Method: as §1

UOK 262 [1] = experiment: Neutral comet assay in UOK 262 HLRCC cells; type: cell-based, human; settings: for levels of DNA DSBs after exogenous metabolite: FH-deficient UOK 262 cells, 24 h (FIG. 3H)
UOK 268 = experiment: Neutral comet assay in UOK 268 HLRCC cells; type: cell-based, human; settings: for levels of DNA DSBs after exogenous metabolite: FH-deficient UOK 268 cells, 24 h (FIG. 3H)
KDM4A and KDM4B = experiment: Western blot of histone trimethylation (KDM4A/B activity) in YUNK1 cells; type: cell-based, human; settings: increasing doses, 24 h (FIGS. 7E-7F)
Method: Western Blot analyses. Western blot analysis of protein levels was conducted by loading 30 μg of whole cell lysate onto a 4-20% polyacrylamide gel. Total protein was transferred to a nitrocellulose membrane. After blocking with 5% milk, membranes were incubated with primary antibodies. Antibodies used were: Rabbit monoclonal anti-Fumarase (D9C5,Cell Signaling Technologies) 1:1000 in 5% BSA, mouse monoclonal anti-SDHB (21A11AE7, Abcam) 1:1000 in % 5 milk, mouse monoclonal anti-Vinculin (SPM227, Abcam) 1:1000 in 5% milk, rabbit polyclonal anti-Histone 3 Lysine 36 trimethyl (9050, Abcam) 1:500 in 5% BSA, anti-Histone 3 Lysine 9 trimethyl (D4W1U, Cell Signaling Technologies) 1:1000 in 5% BSA, mouse monoclonal anti-Beta Actin (60008, Protein Tech) 1:5000 5% milk, rabbit Polyclonal anti-Histone H3 (ab1791, Abcam 1:5000 5% BSA), rabbit Polyclonal anti-PAR (4336-BPC-100, Trevigen) 1:5000 5% BSA, mouse monoclonal anti-GAPDH (60004 Protein Tech) 1:5000 5% milk, mouse monoclonal anti-BRCA2 (ab1, Millipore, 1:1000 5% Milk), mouse monoclonal anti-BRCA1 (D-9, Santa Cruz, 1:200 5% milk), mouse monoclonal anti-RAD51(14B4 Novus bio, 1:1000 5% milk). Patient sample blots were reprobed. Reprobed blots were stripped with Restore Plus Stripping Buffer (Thermo Fischer) and re-blocked with 5% milk prior to reprobing. Blots were tested to ensure all residual detection reagents were removed. Dual Color Precision Plus Protein standard was used as a molecular weight standard for western blots. Cell Culture. YUNK1 cells were generated in culture from uninvolved cortical renal tissue from a patient undergoing a radical nephrectomy for kidney cancer. […] YUNK1 was immortalized with a lentiviral vector containing SV40 Large T antigen (Addgene plasmid #22298). Lentiviral production was performed using HEK293FT (ATCC) using plasmids pMDLg/pRRE, pRSV-Rev, pCMV-VSG-G (Addgene #12251, 12253, and 8454). YUNK1 cells were maintained in DMEM+10% FBS+1% Pen/Strep. HEK293FT cells (ATCC) were maintained in DMEM+10% FBS+1% Pen/Strep. After lentiviral infections with TRIPZ-shRNA or GIPZ lentiviruses, cells were maintained in DMEM+10% FBS+1% Pen/Strep+2 μg/mL Puromycin. For dox inducible shRNAs, expression was induced with 2 μg/mL doxycycline. Doxycycline induced knockdown was monitored by western blot as well as by RFP fluorescence from the internal and dox-inducible reporter on the TRIPZ construct. U2OS DR-GFP cells were maintained in DMEM+10% FBS+1% Pen/Strep. UOK 262 and UOK 268 HLRCC cells are previously described in Yang, et al., 2010, Cancer Gent. Cytogent. 196:45-55; Yang, et al., 205, Cancer Genet. 205:377-390. They were obtained courtesy of W. M. Linehan and were maintained in DMEM+10% FBS+1% Pen/Strep+1 mM Sodium-Pyruvate. NCCFH1 cells were maintained in DMEM+10% FBS+1% Pen/Strep+1 mM Sodium-Pyruvate. […]

HEK293FT and YUNK1 cells = experiment: Clonogenic survival assay, PARP inhibitors, knockdown or metabolite-treated cells; type: cell-based, human
[2] = tested on: HEK293FT shSDHB / shFH / shCTRL cells; experiment: Clonogenic survival assay, DNA damaging agents, SDHB or FH knockdown cells; type: cell-based, human; settings: SDHB or FH knockdown cells compared to control shRNA
Method: as §1

UOK 262 [3] = experiment: Clonogenic survival assay in cell lines of renal origin; type: cell-based, human; settings: FIG. 4C (BMN-673), FIG. 8J (mitomycin C)

SMILES: O=C(O)CCC(=O)O [succinate]
- suppression of HR, DR-GFP assay (U2OS DR-GFP cells): sufficient to suppress HR in a dose-dependent manner
- p53BP1 foci (HEK293FT cells): Increases
- γH2AX foci (HEK293FT cells): Increases
- γH2AX foci (YUNK1 cells; 24 h (FIGS. 6I-6J)): Increases
- p53BP1 foci (YUNK1 cells; 24 h (FIGS. 6K-6L)): Increases
- levels of DNA DSBs after exogenous metabolite (UOK 262 [1]): no further effect
- levels of DNA DSBs after exogenous metabolite (UOK 268): no further effect
- H3K9me3 levels (KDM4A and KDM4B): dose-dependent increase
- H3L36me3 levels (KDM4A and KDM4B): dose-dependent increase
- induction of sensitivity to PARP inhibitors olaparib and BMN-673 by exogenous metabolite (HEK293FT and YUNK1 cells; metabolite added to culture media (2 mM succinate; 30 or 60 μM dimethyl-fumarate)): induced dramatic sensitivity

SMILES: CCOC(=O)CCC(=O)O [monoethyl-succinate]
- suppression of HR, DR-GFP assay (U2OS DR-GFP cells): sufficient to suppress HR in a dose-dependent manner

SMILES: O=C(c1cc(Cc2n[nH]c(=O)c3ccccc23)ccc1F)N1CCN(C(=O)C2CC2)CC1 [olaparib]
- sensitivity to the PARP inhibitor, clonogenic survival (HEK293FT and YUNK1 cells; knockdown of SDHB and FH or exogenous dimethyl-fumarate or succinate (FIGS. 4A-4B, 8E-8I)): dramatic sensitivity

SMILES: COC(=O)CCC(=O)OC [dimethyl-succinate]
- suppression of HR, DR-GFP assay (U2OS DR-GFP cells): sufficient to suppress HR in a dose-dependent manner

SMILES: COC(=O)CCC(=O)C(=O)OC [αKG, dimethyl-α-ketoglutarate]
- rescue of HR defect induced by succinate or fumarate, DR-GFP assay (U2OS DR-GFP cells; co-treatment with dimethyl-succinate or dimethyl-fumarate (FIG. 3L)): rescued
- rescue of elevated DSB phenotype (comet assay) (UOK 262 [1]; FH deficient UOK 262 cells, 2 mM dimethyl-α-ketoglutarate (FIG. 3J)): rescued the phenotype
- rescue of elevated DSB phenotype (comet assay) (UOK 268; FH deficient UOK 268 cells, 2 mM dimethyl-α-ketoglutarate (FIG. 3J)): rescued the phenotype

SMILES: O=C(O)/C=C/C(=O)O [fumarate]
- levels of DNA DSBs after exogenous metabolite (UOK 262 [1]): no further effect
- levels of DNA DSBs after exogenous metabolite (UOK 268): no further effect
- H3K9me3 levels (KDM4A and KDM4B): dose-dependent increase
- H3L36me3 levels (KDM4A and KDM4B): dose-dependent increase

SMILES: CCOC(=O)/C=C/C(=O)O [monoethyl-fumarate]
- suppression of HR, DR-GFP assay (U2OS DR-GFP cells): sufficient to suppress HR in a dose-dependent manner

SMILES: CO[C@@]12[C@H](COC(N)=O)C3=C(C(=O)C(C)=C(N)C3=O)N1C[C@@H]1N[C@@H]12 [mitomycin C]
- clonogenic survival in response to DNA damaging agent [2]: substantially reduced survival
- sensitivity of UOK 262 relative to FH-proficient cell lines of renal origin, clonogenic survival (UOK 262 [3]): markedly more sensitive

SMILES: N.N.[Cl][Pt][Cl] [cisplatin]
- clonogenic survival in response to DNA damaging agent [2]: substantially reduced survival
